Here are results for two molecules from PubChem BioAssay AID458.

This test addresses NAD-dependent protein deacylase sirtuin-5, mitochondrial (Homo sapiens) (UniProt Q9NXA8). The experiment in a line: ligand binding to SIRT5 via aggregation temperature – biophysical, StarGazer light scattering (AID 458). The note with it: SIRT5 thermal stabilisation, at 1 mM, protein 12 µM, stronger effect = higher value.

Sequence of NAD-dependent protein deacylase sirtuin-5, mitochondrial (Homo sapiens) (Q9NXA8 whole entry, looked up): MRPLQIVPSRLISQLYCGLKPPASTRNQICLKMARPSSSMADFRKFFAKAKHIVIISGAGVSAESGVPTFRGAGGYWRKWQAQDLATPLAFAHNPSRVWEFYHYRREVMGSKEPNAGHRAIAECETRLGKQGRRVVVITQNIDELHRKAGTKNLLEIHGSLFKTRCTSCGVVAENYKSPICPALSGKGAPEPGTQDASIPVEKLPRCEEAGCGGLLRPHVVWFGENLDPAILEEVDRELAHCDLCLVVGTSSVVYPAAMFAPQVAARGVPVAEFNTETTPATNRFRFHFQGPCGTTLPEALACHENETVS

Turning to `CC(/C=C/C(=O)NO)=C\[C@@H](C)C(=O)c1ccc(N(C)C)cc1`, the Tagg shift stood at 5.1 °C.

As to `Cc1ccc(C(=O)Nc2ccc(S(=O)(=O)O)c3cc(S(=O)(=O)O)cc(S(=O)(=O)O)c23)cc1NC(=O)c1cccc(NC(=O)Nc2cccc(C(=O)Nc3cc(C(=O)Nc4ccc(S(=O)(=O)O)c5cc(S(=O)(=O)O)cc(S(=O)(=O)O)c45)ccc3C)c2)c1`, the Tagg shift was 27 °C.
